Measured values published in patent US20210038730A1, “PEPTIDE NANOFIBERS” (UNIVERSITY OF PORTSMOUTH HIGHER EDUCATION CORPORATION, priority 2018, published 2021).
≈ marks a conversion by molar mass, not a printed value.

Tests used:
physchem = assay: physchem
Protocol: Paclitaxel (PAX)-loaded TPGnRH nanofibers were prepared by adding a PAX solution (250 μL, 2.562 mg mL^−1 in isopropyl alcohol, IPA) to the dry peptide to achieve a molar ratio of 1:1, 1:1.95, 1:3.68 or 1:7.36 of PAX:TPGnRH. After vortexing, bath and probe sonication (200 watts, amplitude 60%, UP200S Ultrasonic, SciMed, Stockport, UK) for 10 minutes, the IPA was removed by rotary evaporation. The film was re-hydrated in acetate buffer (50 mM, pH 4.5), and the final formulation was centrifuged for 5 minutes at 900 rpm to remove undissolved PAX. Supernatant was collected and the amount of PAX and TPGnRH was quantified by reverse phase-HPLC. […] Morphology of PAX-loaded formulations was evaluated using TEM and AFM, as described above.

[1] = Release from 3D printed cellulose-sodium alginate bioinks; format: physicochemical; conditions: PBS
Protocol: Peptide nanofibers were embedded in cellulose nanocrystals and sodium alginate hydrogels. Cellulose nanocrystals were synthesised by sulphuric acid degradation (45% w/v, 150 mls) of cellulose (15 g, Western Hemlock) at 50° C. over 90 minutes under stirring. Cold-deionised water was used to quench reaction and acid was removed by centrifugation (4,000 rpm, 10 minutes). Cellulose nanocrystals were dialysed (12-14 kDa for cytochrome C, Medicell Ltd) over 5 L with 6 changes over 24 hours. Resulting suspension was probe sonicated (400 watt, 23% amplitude, 10 minutes) in 50 mLs aliquots. The resulting suspension was centrifuged (4,000 rpm, 10 minutes) and supernatant was stored in the refrigerator. Cellulose nanocrystals (CNCs, 4.5% w/w, 2 g) were loaded onto a syringe attached to a three-way valve, where a syringe loaded sodium alginate (6% w/w in 4.6% glucose, 1.7 g). The CNCs were injected in the sodium alginate syringe and mixed 10 times (in each direction). Sample was collected in one syringe and a new syringe containing calcium chloride (0.1M, 0.9 mL). Sample was pushed into calcium chloride and mixed 5 times (in each direction) prior collecting the gel in one syringe and loading in cartridges. Peptide nanofibers (5 mg) were dispersed in 0.9 mL of 0.1M calcium chloride and mixed as above when needed. Release of paclitaxel loaded and TPGnRH gels in PBS (1×, 7.4, 6 mLs) was quantified as per HPLC method described previously (Example 7, Table 2). After an initial burst release, a controlled release profile is observed with gradual slow release over days. Resulting inks can be utilised for the production of nanofiber loaded implants for tumour patients.

in vitro = assay: in vitro
Protocol: (§1) In order to test the permeability of TPGnRH nanofibers across the blood-brain barrier (BBB), a static contact co-culture was set up according to a previous method^7. Briefly, human astrocytes (SC-1800, 25,000 cells/well) were seeded on the abluminal side of a 24-well plate Transwell polycarbonate membrane (3 μm of a pore size, Corning Star, Deeside, UK) coated with human fibronectin. Cells were allowed to attach for 3 days, and then human brain microvascular endothelial cells (hCMEC/D3, 75,000 cells/well) were seeded on the luminal side of the Transwell and co-cultured with astrocytes for five days with a daily change of the media. Transendothelial resistance was measured using EVOM voltohmmeter (World Precision Instruments, Berlin, Germany).
(§2) Transwells were washed with HBSS and immersed into HBSS (600 μL in abluminal side). […] Samples (100 μL) were collected from the abluminal side at specific time-points, and fresh HBSS (100 μL) was used to replace the volume from the abluminal compartments. […] PAX was analysed using reverse phase-HPLC with the gradient method described on Table 2. TR-TPGnRH was quantified in POLARstar Omega plate reader spectrophotometer with λexc 596 and λem 615 nm. The permeability coefficient (Papp) was determined using the equation: […]
(§3) ΔQr, is the flux of drug along time (μg mL^−1), Vr is the volume of the abluminal side (mL), A is the area of the Transwell membrane, C0 is the concentration of drug in the luminal side, and 60, the converser factor from minutes to seconds^8.

SK-OV-3 cells = assay: Cell uptake of TR-TPGnRH, SK-OV-3; format: cell-based, human
Protocol: (§4) The U-87 MG and SK-OV-3 cells were seeded at 20,000 cells/cm^2 in a 12-well plate (76,000 cells per well). Cells were allowed to attach overnight, and then the media was replaced by fresh media (900 μL) containing TR-TPGnRH (50 μg mL^−1 in PBS, 100 μL, pH 7.4). Subsequently, cells were either incubated at 4 or 37° C. for 1 and 4 hours. At the end of each time-point, cells were washed with HBSS twice to wash the free fibres, incubated with 500 μL TrypLE Enzyme at 37° C. for 3 minutes, and then collected by centrifugation at 1,000 rpm for 5 minutes using a C-28A centrifuge. Cells were then re-suspended in PBS (200 μL) and analysed in BD FACSCalibur™ flow cytometer acquiring at least 10,000 events. Unstained cells were used as a control in the flow cytometry settings.

U-87 MG cells = assay: Cell uptake of TR-TPGnRH, U-87 MG; format: cell-based, human
Protocol: as §4

[2] = tested on: hCMEC/D3 endothelial cells; assay: Cell uptake in endothelial cells (flow cytometry); format: cell-based, human; conditions: 4 hours of incubation, 50 μg mL^−1
Protocol: TPGnRH was labelled with Texas Red (TR) according to the manufacturer's protocol. Endothelial cells were seeded (227,000 cells/cm^2) in 24-well plates, allowed to attach for 24 hours, and then media was replaced by fresh media containing TR-TPGnRH at 50 μg mL^−1 in PBS. Cells were either incubated at 4 or 37° C. for 1 and 4 hours. At the end of a time-point, cells were washed with HBSS to remove the free nanofibers, incubated with 500 μL of TrypLE Express Enzyme and collected by centrifugation. The cell pellet was then re-suspended in PBS, and cells were analysed in BD FACS Calibur™ flow cytometer (BD Biosciences, Wiltshire, UK) acquiring at least 10,000 events. Data were analysed in FlowJo® Software 10.1. Unstained cells were used as a control in the flow cytometry settings.

[3] = tested on: in vitro BBB model (hCMEC/D3 and SC-1800 co-culture); assay: in vitro
Protocol: as §1, §2, §3

With `CC(=O)O[C@H]1C(=O)[C@@]2(C)[C@H]([C@H](OC(=O)c3ccccc3)[C@]3(O)C[C@H](OC(=O)[C@H](O)[C@@H](NC(=O)c4ccccc4)c4ccccc4)C(C)=C1C3(C)C)[C@]1(OC(C)=O)CO[C@@H]1C[C@@H]2O` [PAX, Paclitaxel, reference compound] the solubility (physchem; aqueous buffer) was 0.92 ± 1.35 µg/mL (≈ 1.08 µM), the solubility (physchem; aqueous with cosolvent or surfactant or cyclodextrin) was 29.3 ± 3.63 µg/mL (≈ 34.3 µM) and the “% release from 3D printed bioink” value ([1]; 0 minutes) was 0%. The “% release from 3D printed bioink” value ([1]; 1 minutes) was 13.1 ± 15.6%, the “% release from 3D printed bioink” value ([1]; 5 minutes) was 13.7 ± 5.6% and the “% release from 3D printed bioink” value ([1]; 10 minutes) was 18.0 ± 10.6%. The “% release from 3D printed bioink” value ([1]; 15 minutes) was 10.7 ± 2.3%, the “% release from 3D printed bioink” value ([1]; 30 minutes) was 11.8 ± 5.2% and the “% release from 3D printed bioink” value ([1]; 45 minutes) was 13.7 ± 8.4%. The “% release from 3D printed bioink” value ([1]; 60 minutes) was 20.7 ± 9.6%, the “% release from 3D printed bioink” value ([1]; 90 minutes) was 24.6 ± 5.1% and the “% release from 3D printed bioink” value ([1]; 120 minutes) was 26.9 ± 9.4%. The “% release from 3D printed bioink” value ([1]; 240 minutes) was 19.0 ± 10.9%, the “% release from 3D printed bioink” value ([1]; 360 minutes) was 24.8 ± 7.3% and the “% release from 3D printed bioink” value ([1]; 1110 minutes) was 28.0 ± 11.4%. The “% release from 3D printed bioink” value ([1]; 1440 minutes) was 30.2 ± 9.8%, the “% release from 3D printed bioink” value ([1]; 2760 minutes) was 37.1 ± 7.2% and the Papp A→B at 50 μg mL^−1 (in vitro; human) was 0.19 ×10⁻⁶ cm/s.

With `CCCCCCCCCCCCCCCC(=O)Oc1ccc(C[C@H](NC(=O)[C@H](CO)NC(=O)[C@H](Cc2c[nH]c3ccccc23)NC(=O)[C@H](Cc2c[nH]cn2)NC(=O)[C@H](CCC(=O)O)NS(=O)(=O)c2ccc(-c3c4cc5c6c(c4[o+]c4c7c8c(cc34)CCCN8CCC7)CCCN6CCC5)c(S(=O)(=O)[O-])c2)C(=O)NCC(=O)N[C@@H](CC(C)C)C(=O)N[C@@H](CCCNC(=N)N)C(=O)N2CCC[C@H]2C(=O)NCC(N)=O)cc1` [Texas Red-TPGnRH] the Cell uptake (SK-OV-3 cells; SK-OV-3, 1 Hour, 4° C.) was 10.02 ± 0.52, the Cell uptake (SK-OV-3 cells; SK-OV-3, 1 Hour, 37° C.) was 13.35 ± 0.53 and the Cell uptake (SK-OV-3 cells; SK-OV-3, 4 Hours, 4° C.) was 52.47 ± 3.34. The Cell uptake (SK-OV-3 cells; SK-OV-3, 4 Hours, 37° C.) was 49.36 ± 4.66, the Papp A→B (in vitro) was 6 ×10⁻⁶ cm/s and the Cell uptake (U-87 MG cells; 1 Hour, 4° C.) was 20.51 ± 3.10. For the same compound, the Cell uptake (U-87 MG cells; 1 Hour, 37° C.) was 32.64 ± 5.04, the Cell uptake (U-87 MG cells; 4 Hours, 4° C.) was 52.36 ± 10.20 and the Cell uptake (U-87 MG cells; 4 Hours, 37° C.) was 91.12 ± 1.11. For the same compound, the “TR-TPGnRH+ cells” value ([2]; 4° C.) was 0.18±0.05% and the “TR-TPGnRH+ cells” value ([2]; 37° C.) was 68.43±0.85%.

In the case of Texas Red [Free Texas Red], the Papp [3] is reported as 111.78 ± 24.30 ×10^−6 cm s^−1.
